Key:
[1] = test system: muscarinic acetylcholine receptors; conditions: believed to bind; cited from earlier work
[2] = test system: mild-to-moderate Alzheimer's disease patients; assay: Phase 2a trial: MMSE and Cogstate scales, safety profile; format: in vivo, human
Protocol: (§1) The 36-day multicenter randomized clinical trial included both male and female mild-to-moderate Alzheimer's disease patients. ANAVEX2-73 was administered to twelve subjects as an add-on therapy to the donepezil current standard of care. ANAVEX2-73 was administered according to a two-period on-off-on cross-over dosing regimen in which the subjects were administered ANAVEX2-73 for 12 days (1st period) followed by a 12-day wash-out period before being administered ANAVEX2-73 for a second 12-day period (2nd period). Those subjects that were administered ANAVEX2-73 by oral administration during the 1st period were administered ANAVEX2-73 intravenously during the 2nd period, and vice versa. About half of the subjects were administered a 30 mg oral dosage form while the other half of subjects were administered a 50 mg oral dosage form. The intravenous dosage was either 3 mg or 5 mg, with about half of the subjects administered 3 mg and the other half administered 5 mg.
The results for the twelve subject on-off-on dosing regimen of ANAVEX2-73, shown in FIGS. 5-9, were achieved without any dose optimization. […] An additional 20 subjects will be studied during the remainder of the Phase 2a clinical trial. Phase 2b clinical trials, involving an additional 26-week extension of daily oral dosage administration of ANAVEX2-73 is on-going.

[3] = test system: patients with early signs of Alzheimer's disease; assay: Single-patient examples of intermittent dosing in early Alzheimer's disease (Examples 1-5); format: in vivo, human
Source text: The following examples show uses of ANAVEX2-73 in the treatment of patients with Alzheimer's disease or presenting with the early signs of Alzheimer's disease. The clinical determination that a patient may have Alzheimer's disease or is presenting with early signs of Alzheimer's disease is well known in the art. By way of example, the following references (and all publications cited herein) are incorporated by reference herein in their entireties: Dementia: From Diagnosis to Management—A Functional Approach 1st Edition, Psychology Press (Feb. 17, 2009); Clinician's Guide to Psychological Assessment and Testing: With Forms and Templates for Effective Practice 1st Edition, Springer Publishing Company (Sep. 18, 2012); Neurodegener. Dis. Manag. 5(3), 191-201 (2015); Artif. Intell. Med. 64(1), 59-74 (2015); Clin. Chem. 60(12), 1585-1586 (2014); and Metabolism 64(3 Suppl 1), S47-50 (2014).
(§2) A person presents with early signs of Alzheimer's disease. They are orally administered a pharmaceutical composition containing 30 mg ANAVEX2-73 according to an intermittent dosing regimen where each cycle includes daily administration for 10 days (dosing period) followed by 10 days of no administration (resting period). The patient is administered 30 mg ANAVEX2-73 according to the intermittent dosing regimen for 6 months. Their loss of cognitive function stabilizes during that period.
(§3) A person presents with signs of early onset Alzheimer's disease. They are orally administered a pharmaceutical composition containing 50 mg ANAVEX2-73 according to an intermittent dosing regimen where each cycle includes daily administration for 10 days (dosing period) followed by 20 days of no administration (resting period). Their loss of cognitive function stabilizes during that period.
as §3, with “are” for “are orally”, “3” for “a pharmaceutical composition containing 50”, “mg of” for “mg”, “ANAVEX2-73 intravenously” for “ANAVEX2-73”, “5” for “10”, “period) for one year.” for “period).”
A person presents with signs of early onset Alzheimer's disease. They are administered 5 mg of ANAVEX2-73 intravenously according to an intermittent dosing regimen where each cycle includes daily administration for 14 days (dosing period) followed by 7 days of no administration (resting period) for one year. Their loss of cognitive function stabilizes during that period.
as §2, with “containing 50” for “containing 30”, “for 14” for “for 10”, “by 7” for “by 10”, “administered 50” for “administered 30”, “function is stabilized” for “function stabilizes”

[4] = Randomized, placebo-controlled single ascending dose Phase 1 study in healthy male volunteers; format: in vivo, human
Protocol: See Poster: A Phase 1 Dose Escalation Study to Investigate Safety, Tolerability, and Pharmacokinetics of ANAVEX2-73 in Healthy Male Subjects, CNS Summit 2014, Boca Raton, Fla., by Ole Voges, Ingo Weigmann, Norman Bitterlich, Christoph Schindler and Christopher Missling. […] Based on the frequency and intensity of […] adverse events (TEAEs) the maximum tolerable dose (MTD) and the minimum intolerable dose (MID) were defined as 55 mg and 60 mg, respectively.

[5] = test system: amyloid β25-35 peptide (Aβ25-35) toxicity; conditions: cited from earlier work
[6] = test system: mild-to-moderate Alzheimer's disease patients; assay: Phase 2a trial: auditory P300 event related potential (three-stimulus oddball paradigm); format: in vivo, human
Protocol: as §1
Resting electroencephalographic (EEG) activity and event related potentials (EEG/ERP) were used to assess the cognitive effects of ANAVEX2-73 administration. Event related potentials (ERPs) are voltage changes time-locked to some physical or mental occurrence in ongoing electrical brain activity, as recorded by EEG. Event-related potentials (ERPs) provide a sensitive and reliable measure of the cognitive effects associated with early Alzheimer's disease. […] See for example, New Encycl. Neurosci., Oxford Academic Press, p. 13-18 (2009). For example, ERP tests on young presymptomatic individuals who carry mutations in the presenilin-1 and amyloid precursor protein genes show significant changes in ERP patterns years before the onset of behavioral symptoms and the development of Alzheimer's disease. See for example, Neurology 73, 1649-1655 (2009); Neurology 77, 469-475 (2011). […] For instance, ERP markers of cognitive function are increasingly altered in longitudinal studies on individuals with mild cognitive impairment (MCI) and Alzheimer's disease patients. See for example, Clin. Neurophysiol. 122, 1322-1326 (2011); Clin. Neurophysiol. 121, 194-199 (2010). […] See for example, Neurol. Neurochir. Pol. 35 Suppl 3, 37-43 (2001); Clin. Neuropharmacol. 25, 207-215 (2002); Neurosci. Biomed. Eng. 1, 34-39 (2013).
In particular, the auditory P300 component of the ERP has been widely applied in the study of age-related cognitive dysfunction because it is thought to reflect attentional and memory processes. Auditory P300 is a positive deflection occurring at about 300 ms from stimulus onset. It is generated by the activation of multiple neocortical and limbic regions. […]

[7] = test system: mild-to-moderate Alzheimer's disease patients; assay: Phase 2a trial: EEG peak alpha frequency (PAF); format: in vivo, human; conditions: 12 patients, day 36
Protocol: as §1, with “About half of the subjects were administered a 30 mg oral dosage form while the other half of subjects were administered a 50 mg oral dosage form. The intravenous dosage was either 3 mg or 5 mg, with about half of the subjects administered 3 mg and the other half administered 5 mg.” left out
Subjects were tested using a three-stimulus oddball paradigm. […] Electroencephalographic (EEG) activity was recorded from seven electrode sites (Fz, Cz, Pz, F3, P3, F4, and P4) of the international 10-20 system using a COGNISION™ Headset (Neuronetrix). […]
FIG. 8 illustrates electroencephalographic (EEG) peak alpha frequency (PAF) data for twelve patients at baseline and day 36 following the on-off-on ANAVEX2-73 dosing regimen, as compared to a healthy control group. Electroencephalographic (EEG) peak alpha frequency (PAF), measured in Hz, is a distinctive individual “fingerprint” that has been correlated to cognitive performance and reflects a trait or state of cognitive preparedness. […]

sigma-1 receptor = sigma-1 receptor (Homo sapiens, UniProt Q99720); conditions: believed to bind; cited from earlier work
Sequence of sigma-1 receptor (Q99720 whole entry, species assumed): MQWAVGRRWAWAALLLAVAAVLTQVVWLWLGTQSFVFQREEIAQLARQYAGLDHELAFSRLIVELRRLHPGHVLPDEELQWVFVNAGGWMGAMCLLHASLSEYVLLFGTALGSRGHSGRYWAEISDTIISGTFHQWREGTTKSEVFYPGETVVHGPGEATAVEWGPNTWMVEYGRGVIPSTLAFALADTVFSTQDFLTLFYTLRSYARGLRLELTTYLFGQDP

## CN(C)CC1CCOC1(c1ccccc1)c1ccccc1.Cl (stereo not shown) [ANAVEX2-73, tetrahydro-N,N-dimethyl-2,2-diphenyl-3-furanmethanamine hydrochloride]
[1]
  affinity for muscarinic acetylcholine receptors: low micromolar range
[2]; Phase 2a trial
  safety profile during Phase 2a: consistent with the Phase 1 data
[2]; preliminary, 12 patients
  Mini Mental State Examination (MMSE) and Cogstate scale changes: consistent with the observed trend of the cognitive EEG/ERP effect
[3]; Example 1: person, 30 mg oral, 10 days on / 10 days off, 6 months
  loss of cognitive function: stabilizes
[3]; Example 2: person, 50 mg oral, 10 days on / 20 days off
  loss of cognitive function: stabilizes
[3]; Example 3: person, 3 mg intravenously, 5 days on / 20 days off, one year
  loss of cognitive function: stabilizes
[3]; Example 4: person, 5 mg intravenously, 14 days on / 7 days off, one year
  loss of cognitive function: stabilizes
[3]; Example 5: person, 50 mg oral, 14 days on / 7 days off, 6 months
  loss of cognitive function: is stabilized
[4]; human, in vivo
  observed adverse events: moderate and reversible dizziness and headache
[4]; human, in vivo, po
  QT interval and QTcB: did not reveal any clinically significant changes
  blood pressure, resting heart rate, vital signs and 12-lead ECG: did not show any clinically relevant or dose-dependent changes
  pharmacokinetics: suitable for daily oral dosing
  serious adverse events: No serious adverse events occurred
[4]; male, human, in vivo, po
  minimum intolerable dose (MID): 60 mg
[4]; single oral dose, healthy male volunteers
  maximum tolerable dose (MTD): 55 mg
[5]; in the dose-range tested
  hyperphosphorylation of Tau on physiological (AT-8) and pathological (AT-100) epitopes: attenuated
[5]; mice one week after i.c.v. injection of oligomeric Aβ25-35
  oxidative stress, caspases induction, cellular loss and learning and memory deficits: attenuating
[5]; mice, Aβ25-35
  Aβ25-35-induced P-Akt decrease and P-GSK-3β increase: blocked
[5]; mouse, in vivo
  Aβ25-35-induced endogenous Aβ1-42 seeding: decrease
[6]; 12 patients, day 36, on-off-on regimen (30/50 mg oral, 3/5 mg i.v.), add-on to donepezil
  P300 ERP wave: measured cognitive performance vs baseline: improved measured cognitive performance
[6]; 12 patients, day 36 vs baseline, hydrochloride
  P300 amplitude, Percentage Increase Over Baseline Data: 38%
[6]; day 36 (1 month), change from baseline, donepezil data from the literature
  P300 amplitude change vs historical donepezil at the 1 month time point: about four times higher
[6]; day 36 (1 month), donepezil data from the literature
  percent P300 amplitude change after 1 month vs historical donepezil after 6 months: greater
[7]
  EEG peak alpha frequency (PAF) vs baseline: higher
sigma-1 receptor
  affinity for sigma-1 receptor: low micromolar range
